These results are taken from PubChem BioAssay AID1963837 (Molecular Pharmacology Branch, DTP, NCI, 2024).

The term IC50 denotes the point on the concentration scale where inhibition reaches its midpoint. Broadly, the viability, T/C is the ratio of treated to control.
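For viability, T/C in this document: spheroids exposed to drugs for seven days before readout.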

The first experiment concerns 843126-344-R-J1-PDC complex spheroid viability. Nature of the experiment: Anticancer human tumor 843126-344-R-J1-PDC patient-derived melanoma cell line growth inhibition [POLQ]. Conditions: curve of first compound; second compound 0.0316 µM. In outline:
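PDC + HUVEC + MSC complex spheroids; POLQ inhibitors ± partner drugs; top conc. at/near clinical Cmax, else 10 microM (SN-38 1 microM), half-log dilutions; 37 degrees C, 5% CO2.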
For `CCCS(=O)(=O)Nc1ccc(F)c(C(=O)c2c[nH]c3ncc(-c4ccc(Cl)cc4)cc23)c1F` + COC1C(OC(N)=O)C(O)C(Oc2ccc3c(O)c(NC(=O)c4ccc(O)c(CC=C(C)C)c4)c(=O)oc3c2C)OC1(C)C, the IC50 was greater than 10 µM.

As for `CNCc1ccc(-c2[nH]c3cc(F)cc4c3c2CCNC4=O)cc1` + COC1C(OC(N)=O)C(O)C(Oc2ccc3c(O)c(NC(=O)c4ccc(O)c(CC=C(C)C)c4)c(=O)oc3c2C)OC1(C)C, the IC50 is greater than 10 µM.

Take `COc1cccc(OCCCN)c1-c1cc(Nc2cnc(C#N)cn2)n[nH]1` + COC1C(OC(N)=O)C(O)C(Oc2ccc3c(O)c(NC(=O)c4ccc(O)c(CC=C(C)C)c4)c(=O)oc3c2C)OC1(C)C: the IC50 amounted to 0.0871 µM.

Consider `O=C(c1cc(Cc2n[nH]c(=O)c3ccccc23)ccc1F)N1CCN(C(=O)C2CC2)CC1` + COC1C(OC(N)=O)C(O)C(Oc2ccc3c(O)c(NC(=O)c4ccc(O)c(CC=C(C)C)c4)c(=O)oc3c2C)OC1(C)C, for which the IC50 was greater than 10 µM.

Still in this experiment, the particulars now being: curve of first compound; second compound 0.1 µM.
Turning to `CCCS(=O)(=O)Nc1ccc(F)c(C(=O)c2c[nH]c3ncc(-c4ccc(Cl)cc4)cc23)c1F` + COC1C(OC(N)=O)C(O)C(Oc2ccc3c(O)c(NC(=O)c4ccc(O)c(CC=C(C)C)c4)c(=O)oc3c2C)OC1(C)C, the IC50 is greater than 10 µM.

Consider `CNCc1ccc(-c2[nH]c3cc(F)cc4c3c2CCNC4=O)cc1` + COC1C(OC(N)=O)C(O)C(Oc2ccc3c(O)c(NC(=O)c4ccc(O)c(CC=C(C)C)c4)c(=O)oc3c2C)OC1(C)C, for which the IC50 was greater than 10 µM.

Regarding `COc1cccc(OCCCN)c1-c1cc(Nc2cnc(C#N)cn2)n[nH]1` + COC1C(OC(N)=O)C(O)C(Oc2ccc3c(O)c(NC(=O)c4ccc(O)c(CC=C(C)C)c4)c(=O)oc3c2C)OC1(C)C, the IC50 worked out at 0.156 µM.

On to `O=C(c1cc(Cc2n[nH]c(=O)c3ccccc23)ccc1F)N1CCN(C(=O)C2CC2)CC1` + COC1C(OC(N)=O)C(O)C(Oc2ccc3c(O)c(NC(=O)c4ccc(O)c(CC=C(C)C)c4)c(=O)oc3c2C)OC1(C)C, for which the IC50 was greater than 10 µM.

The same experiment, now with this note: curve of first compound; second compound 0.316 µM.
Consider `CCCS(=O)(=O)Nc1ccc(F)c(C(=O)c2c[nH]c3ncc(-c4ccc(Cl)cc4)cc23)c1F` + COC1C(OC(N)=O)C(O)C(Oc2ccc3c(O)c(NC(=O)c4ccc(O)c(CC=C(C)C)c4)c(=O)oc3c2C)OC1(C)C, for which the IC50 is greater than 10 µM.

In the case of `CNCc1ccc(-c2[nH]c3cc(F)cc4c3c2CCNC4=O)cc1` + COC1C(OC(N)=O)C(O)C(Oc2ccc3c(O)c(NC(=O)c4ccc(O)c(CC=C(C)C)c4)c(=O)oc3c2C)OC1(C)C, the IC50 was greater than 10 µM.

For `COc1cccc(OCCCN)c1-c1cc(Nc2cnc(C#N)cn2)n[nH]1` + COC1C(OC(N)=O)C(O)C(Oc2ccc3c(O)c(NC(=O)c4ccc(O)c(CC=C(C)C)c4)c(=O)oc3c2C)OC1(C)C, the IC50 was determined as 0.135 µM.

Take `O=C(c1cc(Cc2n[nH]c(=O)c3ccccc23)ccc1F)N1CCN(C(=O)C2CC2)CC1` + COC1C(OC(N)=O)C(O)C(Oc2ccc3c(O)c(NC(=O)c4ccc(O)c(CC=C(C)C)c4)c(=O)oc3c2C)OC1(C)C: the IC50 is greater than 10 µM.

Still in this experiment, the particulars now being: curve of first compound; second compound 1 µM.
Consider `CCCS(=O)(=O)Nc1ccc(F)c(C(=O)c2c[nH]c3ncc(-c4ccc(Cl)cc4)cc23)c1F` + COC1C(OC(N)=O)C(O)C(Oc2ccc3c(O)c(NC(=O)c4ccc(O)c(CC=C(C)C)c4)c(=O)oc3c2C)OC1(C)C, for which the IC50 was greater than 10 µM.

Take `CNCc1ccc(-c2[nH]c3cc(F)cc4c3c2CCNC4=O)cc1` + COC1C(OC(N)=O)C(O)C(Oc2ccc3c(O)c(NC(=O)c4ccc(O)c(CC=C(C)C)c4)c(=O)oc3c2C)OC1(C)C: the IC50 was greater than 10 µM.

Regarding `COc1cccc(OCCCN)c1-c1cc(Nc2cnc(C#N)cn2)n[nH]1` + COC1C(OC(N)=O)C(O)C(Oc2ccc3c(O)c(NC(=O)c4ccc(O)c(CC=C(C)C)c4)c(=O)oc3c2C)OC1(C)C, the IC50 worked out at 0.347 µM.

For the compound `O=C(c1cc(Cc2n[nH]c(=O)c3ccccc23)ccc1F)N1CCN(C(=O)C2CC2)CC1` + COC1C(OC(N)=O)C(O)C(Oc2ccc3c(O)c(NC(=O)c4ccc(O)c(CC=C(C)C)c4)c(=O)oc3c2C)OC1(C)C, the IC50 is greater than 10 µM.

The experiment is the same for the next values; noted with them: curve of first compound; second compound 3.16 µM.
For the compound `CCCS(=O)(=O)Nc1ccc(F)c(C(=O)c2c[nH]c3ncc(-c4ccc(Cl)cc4)cc23)c1F` + COC1C(OC(N)=O)C(O)C(Oc2ccc3c(O)c(NC(=O)c4ccc(O)c(CC=C(C)C)c4)c(=O)oc3c2C)OC1(C)C, the IC50 is greater than 10 µM.

Take `CNCc1ccc(-c2[nH]c3cc(F)cc4c3c2CCNC4=O)cc1` + COC1C(OC(N)=O)C(O)C(Oc2ccc3c(O)c(NC(=O)c4ccc(O)c(CC=C(C)C)c4)c(=O)oc3c2C)OC1(C)C: the IC50 is greater than 10 µM.

As for `COc1cccc(OCCCN)c1-c1cc(Nc2cnc(C#N)cn2)n[nH]1` + COC1C(OC(N)=O)C(O)C(Oc2ccc3c(O)c(NC(=O)c4ccc(O)c(CC=C(C)C)c4)c(=O)oc3c2C)OC1(C)C, the IC50 stood at 0.29 µM.

As for `O=C(c1cc(Cc2n[nH]c(=O)c3ccccc23)ccc1F)N1CCN(C(=O)C2CC2)CC1` + COC1C(OC(N)=O)C(O)C(Oc2ccc3c(O)c(NC(=O)c4ccc(O)c(CC=C(C)C)c4)c(=O)oc3c2C)OC1(C)C, the IC50 is greater than 10 µM.

The same experiment, now with this note: curve of first compound; second compound 10 µM.
Regarding `CCCS(=O)(=O)Nc1ccc(F)c(C(=O)c2c[nH]c3ncc(-c4ccc(Cl)cc4)cc23)c1F` + COC1C(OC(N)=O)C(O)C(Oc2ccc3c(O)c(NC(=O)c4ccc(O)c(CC=C(C)C)c4)c(=O)oc3c2C)OC1(C)C, the IC50 was greater than 10 µM.

As to `CNCc1ccc(-c2[nH]c3cc(F)cc4c3c2CCNC4=O)cc1` + COC1C(OC(N)=O)C(O)C(Oc2ccc3c(O)c(NC(=O)c4ccc(O)c(CC=C(C)C)c4)c(=O)oc3c2C)OC1(C)C, the IC50 was greater than 10 µM.

Take `COc1cccc(OCCCN)c1-c1cc(Nc2cnc(C#N)cn2)n[nH]1` + COC1C(OC(N)=O)C(O)C(Oc2ccc3c(O)c(NC(=O)c4ccc(O)c(CC=C(C)C)c4)c(=O)oc3c2C)OC1(C)C: the IC50 turned out to be 0.153 µM.

For the compound `O=C(c1cc(Cc2n[nH]c(=O)c3ccccc23)ccc1F)N1CCN(C(=O)C2CC2)CC1` + COC1C(OC(N)=O)C(O)C(Oc2ccc3c(O)c(NC(=O)c4ccc(O)c(CC=C(C)C)c4)c(=O)oc3c2C)OC1(C)C, the IC50 is greater than 10 µM.

Staying with this experiment, now noted: second compound 0.0316 µM; first compound 0.00316 µM; stronger effect = lower value.
As for `COc1cccc(OCCCN)c1-c1cc(Nc2cnc(C#N)cn2)n[nH]1` + COC1C(OC(N)=O)C(O)C(Oc2ccc3c(O)c(NC(=O)c4ccc(O)c(CC=C(C)C)c4)c(=O)oc3c2C)OC1(C)C, the viability, T/C was 78.6%.

The experiment is the same for the next values; noted with them: second compound 0.0316 µM; first compound 0.01 µM; stronger effect = lower value.
Regarding `COc1cccc(OCCCN)c1-c1cc(Nc2cnc(C#N)cn2)n[nH]1` + COC1C(OC(N)=O)C(O)C(Oc2ccc3c(O)c(NC(=O)c4ccc(O)c(CC=C(C)C)c4)c(=O)oc3c2C)OC1(C)C, the viability, T/C was 85.6%.

The same experiment, now with this note: second compound 0.0316 µM; first compound 0.0316 µM; stronger effect = lower value.
As to `CCCS(=O)(=O)Nc1ccc(F)c(C(=O)c2c[nH]c3ncc(-c4ccc(Cl)cc4)cc23)c1F` + COC1C(OC(N)=O)C(O)C(Oc2ccc3c(O)c(NC(=O)c4ccc(O)c(CC=C(C)C)c4)c(=O)oc3c2C)OC1(C)C, the viability, T/C was 88.8%.

For `CNCc1ccc(-c2[nH]c3cc(F)cc4c3c2CCNC4=O)cc1` + COC1C(OC(N)=O)C(O)C(Oc2ccc3c(O)c(NC(=O)c4ccc(O)c(CC=C(C)C)c4)c(=O)oc3c2C)OC1(C)C, the viability, T/C is 84.8%.

On to `COc1cccc(OCCCN)c1-c1cc(Nc2cnc(C#N)cn2)n[nH]1` + COC1C(OC(N)=O)C(O)C(Oc2ccc3c(O)c(NC(=O)c4ccc(O)c(CC=C(C)C)c4)c(=O)oc3c2C)OC1(C)C, for which the viability, T/C is 77.7%.

For `O=C(c1cc(Cc2n[nH]c(=O)c3ccccc23)ccc1F)N1CCN(C(=O)C2CC2)CC1` + COC1C(OC(N)=O)C(O)C(Oc2ccc3c(O)c(NC(=O)c4ccc(O)c(CC=C(C)C)c4)c(=O)oc3c2C)OC1(C)C, the viability, T/C was 81.4%.

Staying with this experiment, now noted: second compound 0.0316 µM; first compound 0.1 µM; stronger effect = lower value.
Consider `CCCS(=O)(=O)Nc1ccc(F)c(C(=O)c2c[nH]c3ncc(-c4ccc(Cl)cc4)cc23)c1F` + COC1C(OC(N)=O)C(O)C(Oc2ccc3c(O)c(NC(=O)c4ccc(O)c(CC=C(C)C)c4)c(=O)oc3c2C)OC1(C)C, for which the viability, T/C was 87.5%.

Regarding `CNCc1ccc(-c2[nH]c3cc(F)cc4c3c2CCNC4=O)cc1` + COC1C(OC(N)=O)C(O)C(Oc2ccc3c(O)c(NC(=O)c4ccc(O)c(CC=C(C)C)c4)c(=O)oc3c2C)OC1(C)C, the viability, T/C was 94%.

In the case of `COc1cccc(OCCCN)c1-c1cc(Nc2cnc(C#N)cn2)n[nH]1` + COC1C(OC(N)=O)C(O)C(Oc2ccc3c(O)c(NC(=O)c4ccc(O)c(CC=C(C)C)c4)c(=O)oc3c2C)OC1(C)C, the viability, T/C is 45.8%.

For the compound `O=C(c1cc(Cc2n[nH]c(=O)c3ccccc23)ccc1F)N1CCN(C(=O)C2CC2)CC1` + COC1C(OC(N)=O)C(O)C(Oc2ccc3c(O)c(NC(=O)c4ccc(O)c(CC=C(C)C)c4)c(=O)oc3c2C)OC1(C)C, the viability, T/C is 94.9%.

The same experiment, now with this note: second compound 0.0316 µM; first compound 0.316 µM; stronger effect = lower value.
`CCCS(=O)(=O)Nc1ccc(F)c(C(=O)c2c[nH]c3ncc(-c4ccc(Cl)cc4)cc23)c1F` + COC1C(OC(N)=O)C(O)C(Oc2ccc3c(O)c(NC(=O)c4ccc(O)c(CC=C(C)C)c4)c(=O)oc3c2C)OC1(C)C: the viability, T/C is 62.7%.

Consider `CNCc1ccc(-c2[nH]c3cc(F)cc4c3c2CCNC4=O)cc1` + COC1C(OC(N)=O)C(O)C(Oc2ccc3c(O)c(NC(=O)c4ccc(O)c(CC=C(C)C)c4)c(=O)oc3c2C)OC1(C)C, for which the viability, T/C was 98.3%.

Turning to `COc1cccc(OCCCN)c1-c1cc(Nc2cnc(C#N)cn2)n[nH]1` + COC1C(OC(N)=O)C(O)C(Oc2ccc3c(O)c(NC(=O)c4ccc(O)c(CC=C(C)C)c4)c(=O)oc3c2C)OC1(C)C, the viability, T/C is 46.3%.

As to `O=C(c1cc(Cc2n[nH]c(=O)c3ccccc23)ccc1F)N1CCN(C(=O)C2CC2)CC1` + COC1C(OC(N)=O)C(O)C(Oc2ccc3c(O)c(NC(=O)c4ccc(O)c(CC=C(C)C)c4)c(=O)oc3c2C)OC1(C)C, the viability, T/C was 76.9%.

Still in this experiment, the particulars now being: second compound 0.0316 µM; first compound 1 µM; stronger effect = lower value.
Turning to `CCCS(=O)(=O)Nc1ccc(F)c(C(=O)c2c[nH]c3ncc(-c4ccc(Cl)cc4)cc23)c1F` + COC1C(OC(N)=O)C(O)C(Oc2ccc3c(O)c(NC(=O)c4ccc(O)c(CC=C(C)C)c4)c(=O)oc3c2C)OC1(C)C, the viability, T/C is 72.9%.

Take `CNCc1ccc(-c2[nH]c3cc(F)cc4c3c2CCNC4=O)cc1` + COC1C(OC(N)=O)C(O)C(Oc2ccc3c(O)c(NC(=O)c4ccc(O)c(CC=C(C)C)c4)c(=O)oc3c2C)OC1(C)C: the viability, T/C is 92.3%.

As to `COc1cccc(OCCCN)c1-c1cc(Nc2cnc(C#N)cn2)n[nH]1` + COC1C(OC(N)=O)C(O)C(Oc2ccc3c(O)c(NC(=O)c4ccc(O)c(CC=C(C)C)c4)c(=O)oc3c2C)OC1(C)C, the viability, T/C is 31.8%.

In the case of `O=C(c1cc(Cc2n[nH]c(=O)c3ccccc23)ccc1F)N1CCN(C(=O)C2CC2)CC1` + COC1C(OC(N)=O)C(O)C(Oc2ccc3c(O)c(NC(=O)c4ccc(O)c(CC=C(C)C)c4)c(=O)oc3c2C)OC1(C)C, the viability, T/C was 82.5%.
